Assay results published in ChEMBL document CHEMBL5291721, “A preclinical secondary pharmacology resource illuminates target-adverse drug reaction associations of marketed drugs” (Nat Commun, 2023).

Legend:
Mu-type opioid receptor = Mu-type opioid receptor (Homo sapiens, UniProt P35372); assay: biochemical; assay type: functional
[1] = target: T1, Muscarinic acetylcholine receptor M2 (Homo sapiens, UniProt P08172); assay type: functional, cell-based
T1 sequence (P08172 whole entry): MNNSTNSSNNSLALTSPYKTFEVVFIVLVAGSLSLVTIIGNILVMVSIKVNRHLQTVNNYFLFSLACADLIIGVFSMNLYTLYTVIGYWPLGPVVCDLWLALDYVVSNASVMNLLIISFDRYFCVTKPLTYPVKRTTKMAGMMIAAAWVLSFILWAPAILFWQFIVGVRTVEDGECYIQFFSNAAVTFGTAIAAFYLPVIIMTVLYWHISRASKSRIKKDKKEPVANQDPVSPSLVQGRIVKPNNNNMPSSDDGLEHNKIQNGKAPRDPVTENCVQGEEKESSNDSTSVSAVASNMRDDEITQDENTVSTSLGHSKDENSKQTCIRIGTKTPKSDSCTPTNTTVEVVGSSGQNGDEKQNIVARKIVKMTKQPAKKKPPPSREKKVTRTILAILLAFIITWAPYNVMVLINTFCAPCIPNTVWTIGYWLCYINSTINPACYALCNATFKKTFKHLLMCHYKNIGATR

[2] = target: T2, 5-hydroxytryptamine receptor 3A (Homo sapiens, UniProt P46098); assay type: functional
T2 sequence (P46098 whole entry): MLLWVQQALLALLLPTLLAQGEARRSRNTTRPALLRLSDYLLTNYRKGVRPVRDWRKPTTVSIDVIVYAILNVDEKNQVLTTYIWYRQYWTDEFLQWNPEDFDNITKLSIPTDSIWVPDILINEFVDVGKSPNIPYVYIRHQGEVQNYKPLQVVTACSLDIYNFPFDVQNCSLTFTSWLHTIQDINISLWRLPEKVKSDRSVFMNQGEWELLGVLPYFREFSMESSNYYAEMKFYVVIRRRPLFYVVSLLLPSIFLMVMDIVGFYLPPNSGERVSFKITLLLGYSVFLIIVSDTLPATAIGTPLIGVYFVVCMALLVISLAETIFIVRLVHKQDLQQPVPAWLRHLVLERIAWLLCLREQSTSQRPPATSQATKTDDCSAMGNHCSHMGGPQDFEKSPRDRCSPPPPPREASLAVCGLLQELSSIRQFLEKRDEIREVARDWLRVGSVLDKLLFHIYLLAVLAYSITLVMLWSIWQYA

Thromboxane A2 receptor = target: T3, Thromboxane A2 receptor (Homo sapiens, UniProt P21731)
T3 sequence (P21731 whole entry): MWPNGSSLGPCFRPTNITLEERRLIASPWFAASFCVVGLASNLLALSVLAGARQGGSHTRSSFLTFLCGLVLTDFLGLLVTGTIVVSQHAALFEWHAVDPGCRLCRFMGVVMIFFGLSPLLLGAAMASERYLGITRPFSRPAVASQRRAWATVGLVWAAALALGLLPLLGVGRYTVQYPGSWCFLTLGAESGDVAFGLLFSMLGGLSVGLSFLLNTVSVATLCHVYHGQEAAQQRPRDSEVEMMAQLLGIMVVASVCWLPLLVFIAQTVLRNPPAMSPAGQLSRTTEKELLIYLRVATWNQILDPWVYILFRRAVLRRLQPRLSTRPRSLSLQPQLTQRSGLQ

Histamine H2 receptor = Histamine H2 receptor (Homo sapiens, UniProt P25021); assay type: functional, cell-based
Histamine H2 receptor, sequence (P25021 whole entry): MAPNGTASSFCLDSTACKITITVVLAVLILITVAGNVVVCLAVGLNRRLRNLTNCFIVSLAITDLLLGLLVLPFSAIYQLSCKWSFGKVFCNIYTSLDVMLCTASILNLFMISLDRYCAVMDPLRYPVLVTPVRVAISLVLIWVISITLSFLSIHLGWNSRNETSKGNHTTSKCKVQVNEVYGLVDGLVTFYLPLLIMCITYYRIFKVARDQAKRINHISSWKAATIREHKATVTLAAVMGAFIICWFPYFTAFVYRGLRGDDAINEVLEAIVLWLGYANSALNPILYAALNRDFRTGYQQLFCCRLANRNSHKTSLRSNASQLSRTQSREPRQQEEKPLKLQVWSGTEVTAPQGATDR

[3] = target: T4, Cholecystokinin receptor type A (Homo sapiens, UniProt P32238)
T4 sequence (P32238 whole entry): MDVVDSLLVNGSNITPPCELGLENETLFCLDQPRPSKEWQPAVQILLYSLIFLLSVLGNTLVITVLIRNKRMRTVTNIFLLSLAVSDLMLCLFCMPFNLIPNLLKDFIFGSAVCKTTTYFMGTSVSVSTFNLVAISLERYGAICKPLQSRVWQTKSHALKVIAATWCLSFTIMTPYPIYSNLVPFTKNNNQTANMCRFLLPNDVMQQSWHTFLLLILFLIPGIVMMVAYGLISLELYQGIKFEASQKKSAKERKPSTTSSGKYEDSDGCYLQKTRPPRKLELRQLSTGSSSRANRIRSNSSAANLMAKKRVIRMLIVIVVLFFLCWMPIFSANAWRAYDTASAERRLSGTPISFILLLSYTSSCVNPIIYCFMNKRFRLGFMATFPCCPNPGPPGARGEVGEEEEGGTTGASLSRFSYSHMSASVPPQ

[4] = target: T5, Alpha-2C adrenergic receptor (Homo sapiens, UniProt P18825); assay type: functional
T5 sequence (P18825 whole entry): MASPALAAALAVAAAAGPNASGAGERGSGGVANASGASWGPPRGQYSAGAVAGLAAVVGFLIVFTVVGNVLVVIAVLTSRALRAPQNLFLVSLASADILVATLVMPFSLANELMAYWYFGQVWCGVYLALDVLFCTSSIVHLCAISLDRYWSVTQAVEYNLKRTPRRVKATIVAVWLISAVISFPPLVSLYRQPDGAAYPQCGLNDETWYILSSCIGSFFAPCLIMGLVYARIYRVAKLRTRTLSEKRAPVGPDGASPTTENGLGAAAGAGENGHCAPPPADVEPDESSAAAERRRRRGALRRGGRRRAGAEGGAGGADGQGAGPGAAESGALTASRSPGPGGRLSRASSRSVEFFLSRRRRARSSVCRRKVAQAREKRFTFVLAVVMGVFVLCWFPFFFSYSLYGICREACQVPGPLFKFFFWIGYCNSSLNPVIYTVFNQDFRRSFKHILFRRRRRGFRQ

[5] = target: T6, Type-1 angiotensin II receptor (Homo sapiens, UniProt P30556)
T6 sequence (P30556 whole entry): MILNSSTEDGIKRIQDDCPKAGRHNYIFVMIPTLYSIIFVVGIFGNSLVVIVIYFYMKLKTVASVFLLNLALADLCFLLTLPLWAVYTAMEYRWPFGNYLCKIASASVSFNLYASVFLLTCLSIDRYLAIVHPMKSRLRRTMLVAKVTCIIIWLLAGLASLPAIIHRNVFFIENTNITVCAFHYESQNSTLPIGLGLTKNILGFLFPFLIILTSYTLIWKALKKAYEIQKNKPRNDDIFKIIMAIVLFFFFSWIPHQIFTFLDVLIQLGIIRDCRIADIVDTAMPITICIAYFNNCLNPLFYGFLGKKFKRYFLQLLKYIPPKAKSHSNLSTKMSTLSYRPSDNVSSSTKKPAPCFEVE

Motilin receptor = Motilin receptor (Homo sapiens, UniProt O43193)
Motilin receptor, sequence (O43193 whole entry): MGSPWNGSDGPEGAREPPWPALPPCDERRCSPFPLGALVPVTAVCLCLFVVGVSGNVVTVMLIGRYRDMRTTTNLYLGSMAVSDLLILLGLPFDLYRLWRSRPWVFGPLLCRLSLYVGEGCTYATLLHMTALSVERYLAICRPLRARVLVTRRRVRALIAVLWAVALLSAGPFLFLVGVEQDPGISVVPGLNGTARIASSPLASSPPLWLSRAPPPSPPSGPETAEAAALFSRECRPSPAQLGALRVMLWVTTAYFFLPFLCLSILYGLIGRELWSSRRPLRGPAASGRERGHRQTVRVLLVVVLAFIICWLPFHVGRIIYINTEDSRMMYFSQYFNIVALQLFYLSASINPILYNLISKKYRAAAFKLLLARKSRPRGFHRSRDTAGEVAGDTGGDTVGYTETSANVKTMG

[6] = target: Gamma-aminobutyric acid receptor subunit alpha-1 (Rattus norvegicus, UniProt P62813)
Gamma-aminobutyric acid receptor subunit alpha-1, sequence (P62813 whole entry): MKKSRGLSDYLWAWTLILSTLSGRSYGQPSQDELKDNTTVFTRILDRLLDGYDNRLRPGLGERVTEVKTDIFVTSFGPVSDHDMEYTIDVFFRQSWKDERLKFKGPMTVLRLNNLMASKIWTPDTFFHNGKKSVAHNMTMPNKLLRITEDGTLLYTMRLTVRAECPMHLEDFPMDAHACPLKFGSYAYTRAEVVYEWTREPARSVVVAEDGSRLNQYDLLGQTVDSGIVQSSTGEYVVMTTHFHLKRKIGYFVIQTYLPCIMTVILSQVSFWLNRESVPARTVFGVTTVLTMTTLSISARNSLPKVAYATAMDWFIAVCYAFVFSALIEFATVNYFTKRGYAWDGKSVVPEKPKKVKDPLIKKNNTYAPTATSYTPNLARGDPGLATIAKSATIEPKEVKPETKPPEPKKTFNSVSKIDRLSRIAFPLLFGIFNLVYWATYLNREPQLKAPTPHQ
Further: assay procedure not described here.

Mu-type opioid receptor, sequence (P35372 whole entry): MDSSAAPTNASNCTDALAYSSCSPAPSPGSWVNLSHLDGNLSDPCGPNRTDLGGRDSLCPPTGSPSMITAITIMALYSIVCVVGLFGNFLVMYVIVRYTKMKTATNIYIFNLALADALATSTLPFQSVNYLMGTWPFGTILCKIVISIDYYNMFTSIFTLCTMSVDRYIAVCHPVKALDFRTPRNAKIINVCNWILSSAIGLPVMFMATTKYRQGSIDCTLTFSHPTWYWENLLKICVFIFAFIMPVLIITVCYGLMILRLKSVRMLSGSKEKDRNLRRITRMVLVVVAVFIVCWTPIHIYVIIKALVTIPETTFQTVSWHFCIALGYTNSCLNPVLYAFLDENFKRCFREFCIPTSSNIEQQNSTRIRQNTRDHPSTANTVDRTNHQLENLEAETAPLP

Row | Compound | AC50 (Mu-type opioid receptor) [µM] | AC50 [1] [µM] | AC50 [2] [µM] | AC50 (Thromboxane A2 receptor) [µM] | AC50 (Histamine H2 receptor) [µM] | AC50 [3] [µM] | AC50 [4] [µM] | AC50 [5] [µM] | AC50 (Motilin receptor) [µM] | AC50 [6] [µM]
1 | CCCC(CCC)C(=O)O[C@H]1C[C@H]2CC[C@@H](C1)[N+]2(C)C [ANISOTROPINE] | > 30 | > 30 | 28 | > 30 | > 30 | > 30 | > 30 | > 30 | > 30 | 
2 | CCCCCOC(=O)Nc1nc(=O)n([C@@H]2O[C@H](C)[C@@H](O)[C@H]2O)cc1F [CAPECITABINE] | > 30 | > 30 | > 30 |  | > 30 | > 30 | > 30 | > 30 | > 30 | 
3 | O=C1CN=C(c2ccccc2)c2cc(Cl)ccc2N1CC(F)(F)F [HALAZEPAM] | 1.2 | > 30 | > 30 |  | > 30 | > 30 | > 30 | > 30 | > 30 | 
4 | Cc1cccc(C)c1NC(=O)C1CCCCN1C (stereo unspecified) [MEPIVACAINE] | > 30 | > 30 | > 30 |  | > 30 | > 30 | > 30 | > 30 | > 30 | 
5 | C[C@H]1C[C@@H]2[C@H]([C@@H](O)C[C@@]3(C)[C@H]2CC[C@]3(O)C(=O)COC(=O)CCC(=O)O)[C@@]2(C)C=CC(=O)C=C12 [METHYLPREDNISOLONE HEMISUCCINATE] | > 30 | > 30 | > 30 |  | > 30 | > 30 | > 30 | > 30 | > 30 | > 30
6 | Cc1cc(-c2ccccc2)nnc1NCCN1CCOCC1 [MINAPRINE] |  | > 10 | > 30 | > 30 | > 10 | > 30 | > 10 | > 30 | > 10 | > 10
7 | NC(=O)C[S+]([O-])C(c1ccccc1)c1ccccc1 (stereo unspecified) [MODAFINIL] |  | > 10 | > 10 | > 30 | > 10 | > 30 | > 10 | > 30 | > 10 | > 10
8 | CCCCCCC(C)(C)c1cc(O)c2c(c1)OC(C)(C)C1CCC(=O)CC21 (stereo unspecified) [NABILONE] | > 30 | > 30 | > 30 |  | > 30 | > 30 | > 30 | > 30 | > 30 | > 30
9 | CN1CCC2=C(C1)C(c1ccccc1)c1ccccc12 (stereo unspecified) [PHENINDAMINE] |  | > 10 | 12 | > 10 | > 10 | > 10 | 12 | > 10 | > 10 | > 10
10 | CN1C(=O)CC(c2ccccc2)C1=O (stereo unspecified) [PHENSUXIMIDE] |  | > 10 | > 30 | > 10 | > 10 | > 10 | > 10 | > 10 | > 10 | > 10
11 | CC(Cc1ccccc1)NCCC(c1ccccc1)c1ccccc1 (stereo unspecified) [PRENYLAMINE] |  | > 10 | > 30 | > 30 | > 30 | > 30 | 2.3 | > 30 | > 10 | > 10
12 | CCCOc1ccc(C(=O)OCCN(CC)CC)cc1N [PROPARACAINE] | > 30 | > 30 | > 30 |  | > 30 | > 30 | > 30 | > 30 | > 30 | 
13 | C1COC(NC(C2CC2)C2CC2)=N1 [RILMENIDINE] |  | > 10 | > 30 | > 30 | > 10 | > 30 | 6.8 | > 30 | > 10 | > 10
14 | Nc1nc2ccc(OC(F)(F)F)cc2s1 [RILUZOLE] | > 30 | > 30 | > 30 |  | > 30 | > 30 | > 30 | > 30 | > 30 | 
15 | C#CCN(C)[C@H](C)Cc1ccccc1 [SELEGILINE] |  | > 10 | > 30 | > 10 | > 10 | > 10 | 2.9 | > 10 | > 10 | > 10
16 | CN[C@@H]1[C@H](O)[C@H](NC)[C@H]2O[C@@]3(O)C(=O)C[C@@H](C)O[C@H]3O[C@@H]2[C@H]1O [SPECTINOMYCIN] |  | > 10 | > 30 | > 10 | > 10 | > 10 | > 10 | > 10 | > 10 | > 10
17 | CC(=O)NS(=O)(=O)c1ccc(N)cc1 [SULFACETAMIDE] |  | > 10 | > 30 | > 10 | > 10 | > 10 | > 10 | > 10 | > 10 | > 10
18 | Cc1ccc(-c2nc3ccc(C)cn3c2CC(=O)N(C)C)cc1 [ZOLPIDEM] | > 30 | > 30 | > 30 | > 30 | > 10 | > 30 | > 30 | > 30 | > 30 | 
19 | CN1CCN(C(=O)OC2c3nccnc3C(=O)N2c2ccc(Cl)cn2)CC1 (stereo unspecified) [ZOPICLONE] |  | > 10 | > 10 | > 30 | > 10 | > 30 | > 30 | > 30 | > 30 | > 10
